Reference: ChEMBL document CHEMBL1201862, “PubChem BioAssay data set” (2004)
Activity calls are given as the source filed them.

What was measured:
Caspase-6 = biological target: T1, Caspase-6 (Homo sapiens, UniProt P55212); assay: inhibition of CASP6 peptide cleavage – biochemical, VEID-R110 fluorescence, cherry-pick, dose response (AID 720632)
T1 sequence (P55212 whole entry): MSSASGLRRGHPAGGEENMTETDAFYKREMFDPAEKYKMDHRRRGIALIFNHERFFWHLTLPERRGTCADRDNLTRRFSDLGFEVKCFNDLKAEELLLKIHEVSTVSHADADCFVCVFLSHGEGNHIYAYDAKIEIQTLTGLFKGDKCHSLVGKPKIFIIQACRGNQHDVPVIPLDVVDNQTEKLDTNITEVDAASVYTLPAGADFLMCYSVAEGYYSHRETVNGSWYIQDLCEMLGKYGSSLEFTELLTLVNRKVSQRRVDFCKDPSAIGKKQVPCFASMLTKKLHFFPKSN

[1] = biological target: T2, Sentrin-specific protease 8 (Homo sapiens, UniProt Q96LD8); assay type: functional
T2 sequence (Q96LD8 whole entry): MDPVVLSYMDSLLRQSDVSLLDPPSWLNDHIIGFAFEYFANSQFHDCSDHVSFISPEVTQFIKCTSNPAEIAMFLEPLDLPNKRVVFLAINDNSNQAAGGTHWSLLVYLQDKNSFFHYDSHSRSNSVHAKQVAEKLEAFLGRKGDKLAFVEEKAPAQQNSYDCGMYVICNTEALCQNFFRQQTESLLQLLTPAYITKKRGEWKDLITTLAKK

[2] = biological target: T2, Sentrin-specific protease 8; assay type: functional; remark: listed apart in the source
[3] = Trypanosoma cruzi growth suppression in host cells – NIH3T3 host cells, beta-gal luminescence, confirmation (AID 2044); assay type: functional, cell-based;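 also: intracellular parasites grown in NIH/3T3 mouse fibroblasts as host cells; luminescent beta-galactosidase reporter signal from transgenic T. cruzi replicating inside host cells; inhibitors lower the luminescence signal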
[4] = A2780 cell killing – plate reader, dry powder samples, cytotoxicity control, dose response (AID 743046); assay type: functional, cell-based
HEK293 [5] = assay: SAR Analysis of small molecule inhibitors of T-cell specific antigen receptor-induced NF-kB activation in a HEK-293T cell line using a luminescence assay - Set 2. [Related pubchem assays (depositor defined):AID435003, AID435012, AID489026]; assay type: functional, cell-based; settings: Homo sapiens
[6] = biological target: ATP-dependent molecular chaperone HSP82 (Candida albicans (strain WO-1) (Yeast), UniProt C4YTQ8); assay: steroid-induced GRE reporter decrease in yeast – S. cerevisiae, luminescence, Hsp90 inhibitor project, dose response (AID 2400); assay type: functional, cell-based;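 also: beta-galactosidase luminescence from glucocorticoid response element reporter as proxy for Hsp90 function; inhibitor potency where signal loss means Hsp90 inhibition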
Sequence of ATP-dependent molecular chaperone HSP82 (C4YTQ8 whole entry): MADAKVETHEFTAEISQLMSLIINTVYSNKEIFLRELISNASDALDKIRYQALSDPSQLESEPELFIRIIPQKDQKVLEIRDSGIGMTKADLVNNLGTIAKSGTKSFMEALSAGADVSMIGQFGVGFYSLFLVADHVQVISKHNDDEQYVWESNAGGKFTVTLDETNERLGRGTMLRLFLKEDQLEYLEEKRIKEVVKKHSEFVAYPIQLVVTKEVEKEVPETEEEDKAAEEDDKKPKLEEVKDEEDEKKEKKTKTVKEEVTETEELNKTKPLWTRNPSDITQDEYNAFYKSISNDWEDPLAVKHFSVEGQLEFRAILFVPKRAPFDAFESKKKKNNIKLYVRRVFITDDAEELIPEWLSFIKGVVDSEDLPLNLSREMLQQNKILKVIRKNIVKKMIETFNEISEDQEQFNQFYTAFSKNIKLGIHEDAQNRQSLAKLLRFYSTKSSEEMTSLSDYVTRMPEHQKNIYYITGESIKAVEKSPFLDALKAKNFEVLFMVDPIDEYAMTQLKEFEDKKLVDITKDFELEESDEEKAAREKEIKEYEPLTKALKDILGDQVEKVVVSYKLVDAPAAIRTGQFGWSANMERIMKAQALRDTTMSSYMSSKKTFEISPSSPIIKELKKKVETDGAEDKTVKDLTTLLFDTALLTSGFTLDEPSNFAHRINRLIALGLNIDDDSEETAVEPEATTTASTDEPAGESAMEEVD

[7] = non-specific 3'UTR reporter inhibition in Clone20-Shn3RL – cell-based, Renilla luciferase, cherry-picked, counter-screen for Shn3 inhibitor project, dose response (AID 624133); assay type: functional
[8] = OV-90 cell viability loss – plate reader, dry powder, SA8, PAX8 inhibitor project, dose response (AID 743149); assay type: functional, cell-based
[9] = biological target: Heat shock protein HSP 90-alpha (Homo sapiens, UniProt P07900); assay type: functional, organism-based
[10] = PAX5 cellular inhibition readout – cell-based, plate reader, dry powder samples, selectivity assay for PAX8 inhibitor project, dose response (AID 743047); assay type: functional;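 also: HEK293 cells carrying a Pax5 driven CD19 promoter luciferase reporter; potency of inhibitors that lower reporter luminescence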
[11] = OVCAR-3 cell viability loss – plate reader, dry powder samples, PAX8 inhibitor project, dose response (AID 743044); assay type: functional, cell-based
[12] = NIH3T3 cell viability loss – ATP luminescence, mouse fibroblasts, counter-screen, dose response (AID 2010); assay type: functional, cell-based;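 also: cells exposed to compound for about 90 hours before reading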
[13] = COV434 cell viability loss – plate reader, dry powder, SA7, cytotoxicity control for PAX8 inhibitor project, dose response (AID 743145); assay type: functional, cell-based
cells [14] = assay type: functional, cell-based
[15] = inhibitors acting on PAX2 in cells – cell-based, plate reader, dry powder samples, selectivity assay for PAX8 inhibitor project, dose response (AID 743048); assay type: functional;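 also: HEK293 cells carrying a WT1 promoter luciferase reporter driven by expressed Pax2; potency is for inhibition of Pax2 driven reporter signal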
[16] = IGROV1 cell killing – plate reader, dry powder samples, PAX8 inhibitor project, dose response (AID 743043); assay type: functional, cell-based; settings: IGROV-1
[17] = reduction of Shn3 3'UTR-driven luciferase in osteoblasts – cell-based, Clone20 osteoblasts, firefly luciferase, cherry-picked, dose response (AID 624132); assay type: functional;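 also: firefly luciferase luminescence from reporter carrying the Shn3 3'UTR in osteoblasts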
[18] = toxicity toward immortalized ovarian surface epithelium – cell-based, plate reader, dry powder samples, cytotoxicity control for PAX8 inhibitor project, dose response (AID 743045); assay type: functional
HEK293 [19] = assay: HEK293T cell viability loss, resazurin readout – resazurin fluorescence, cytotoxicity control for NF-kB activator project, SAR follow-up (AID 493251); assay type: functional, cell-based; settings: Homo sapiens
[20] = HepG2 cell cytotoxicity, dose response, cytotoxicity control for non-replicating M. tuberculosis project (AID 489018); assay type: functional; settings: Mycobacterium tuberculosis
cells [21] = assay type: functional
[22] = biological target: Luciferin 4-monooxygenase (Photinus pyralis, UniProt P08659); assay: Counter Screen for Luciferase-based Assay Positives. [Related pubchem assays: 620, 618, 411 ]
Sequence of Luciferin 4-monooxygenase (P08659 whole entry, the tested form may be a part): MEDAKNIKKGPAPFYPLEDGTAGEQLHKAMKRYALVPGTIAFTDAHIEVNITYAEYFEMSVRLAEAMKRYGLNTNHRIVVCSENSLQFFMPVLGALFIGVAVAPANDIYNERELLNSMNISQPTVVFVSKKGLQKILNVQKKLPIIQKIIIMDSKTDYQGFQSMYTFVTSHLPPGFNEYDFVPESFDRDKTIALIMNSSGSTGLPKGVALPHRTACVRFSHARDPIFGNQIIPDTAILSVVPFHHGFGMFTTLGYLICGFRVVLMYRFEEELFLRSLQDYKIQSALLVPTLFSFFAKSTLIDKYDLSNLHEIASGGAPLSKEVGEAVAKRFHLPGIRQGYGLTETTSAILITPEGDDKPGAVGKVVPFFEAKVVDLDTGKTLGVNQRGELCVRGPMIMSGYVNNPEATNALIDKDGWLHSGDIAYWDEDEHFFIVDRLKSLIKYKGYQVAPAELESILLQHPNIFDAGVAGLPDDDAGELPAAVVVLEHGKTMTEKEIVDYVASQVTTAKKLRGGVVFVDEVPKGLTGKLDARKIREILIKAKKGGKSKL

[23] = HIV-1 AD8 envelope cell-cell fusion blockers – cherry-pick, dose response (AID 652062); assay type: functional, cell-based;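 also: luciferase signal from cell-cell fusion driven by HIV-1 clade B AD8 Env; potency is for inhibitors of fusion seen as a drop in luminescence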
[24] = blockers of HIV-1 ZM109 envelope-driven cell-cell fusion – HeLa effector, CEM target cells, luciferase, cherry-pick, dose response (AID 652058); assay type: functional, cell-based;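 also: luciferase signal from HIV-1 Env mediated cell-cell fusion of effector and target cells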
[25] = THP-1 cell cytotoxicity, dose response, cytotoxicity control for non-replicating M. tuberculosis project (AID 489025); assay type: functional
[26] = blockers of HIV-1 envelope-mediated cell-cell fusion – cherry-pick, dose response (AID 652057); assay type: functional, cell-based
[27] = Intein inhibitors as potential Tuberculosis drugs, a cytotoxicity screen. [Related pubchem assays (depositor defined):AID2221, AID2223, AID434968, AID435010, AID449749, AID449750, AID489010]; assay type: functional
[28] = Vero E6 cell cytotoxicity, dose response, cytotoxicity control for non-replicating M. tuberculosis project, secondary assay (AID 492998); assay type: functional, VeroE6; settings: Vero C1008
Nonstructural protein 1 = Nonstructural protein 1 (Influenza A virus, UniProt Q194T2); assay type: functional, Influenza A virus (A/California/07/2009(H1N1))
Sequence of Nonstructural protein 1 (Q194T2 whole entry): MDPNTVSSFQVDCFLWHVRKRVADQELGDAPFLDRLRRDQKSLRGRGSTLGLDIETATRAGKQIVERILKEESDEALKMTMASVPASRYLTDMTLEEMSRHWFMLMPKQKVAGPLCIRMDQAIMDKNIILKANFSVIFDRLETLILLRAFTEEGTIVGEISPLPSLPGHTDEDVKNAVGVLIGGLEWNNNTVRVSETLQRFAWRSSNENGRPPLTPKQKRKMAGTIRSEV

HT-1080 = assay: HT1080 cell viability loss – fluorescence readout (AID 620); assay type: functional, cell-based; settings: Homo sapiens
[29] = viability loss in CEM21 cells – cell-based, CellTiter-Glo luminescence, cherry-picked, cytotoxicity control for viral fusion inhibitor project, dose response (AID 652042); assay type: functional;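 also: potency for signal decrease meaning cytotoxicity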
[30] = luciferase reporter signal suppression in cells – H4 neuroglioma cells, luminescence, dose response (AID 1990); assay type: functional, cell-based
[31] = MIN6 cell viability loss – mouse insulinoma, cytotoxicity control, dose response (AID 2122); assay type: functional;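 also: confirmatory high-throughput counterscreen run to flag cytotoxic compounds; mouse MIN-6 beta cells carrying an insulin promoter eGFP reporter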
[32] = biological target: T3, Intestinal-type alkaline phosphatase (Homo sapiens, UniProt P09923); assay: human intestinal alkaline phosphatase activators, dose response, biochemical, luminescence, uHTS hits (AID 463120); assay type: functional
T3 sequence (P09923 whole entry): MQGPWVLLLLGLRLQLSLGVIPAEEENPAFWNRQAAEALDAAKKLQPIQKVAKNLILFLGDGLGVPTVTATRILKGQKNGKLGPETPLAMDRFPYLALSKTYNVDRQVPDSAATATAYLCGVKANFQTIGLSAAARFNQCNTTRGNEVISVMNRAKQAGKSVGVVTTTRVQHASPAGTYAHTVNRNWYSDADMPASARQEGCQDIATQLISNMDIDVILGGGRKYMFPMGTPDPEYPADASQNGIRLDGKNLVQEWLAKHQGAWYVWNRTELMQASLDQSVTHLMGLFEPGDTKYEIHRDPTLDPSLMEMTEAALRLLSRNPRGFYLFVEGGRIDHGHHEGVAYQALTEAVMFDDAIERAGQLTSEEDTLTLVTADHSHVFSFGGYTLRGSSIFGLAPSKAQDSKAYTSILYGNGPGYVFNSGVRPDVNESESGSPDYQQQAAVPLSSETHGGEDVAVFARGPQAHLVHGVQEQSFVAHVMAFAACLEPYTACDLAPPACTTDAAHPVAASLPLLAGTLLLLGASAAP

[33] = alpha-synuclein stem-loop luciferase translation blockers – H4 neuroglioma cells, luminescence, confirmation (AID 1988); assay type: functional, cell-based
[34] = HGIII-sPLA2 enzyme inhibition potency – biochemical, QFRET, IC50, dose response (AID 743457);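 also: green fluorescence rise as the enzyme cleaves BODIPY PC-A2 in liposomes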
[35] = biological target: Intestinal-type alkaline phosphatase (Mus musculus, UniProt P24822); assay: PubChem AID 488874; assay type: functional
Sequence of Intestinal-type alkaline phosphatase (Mus musculus, UniProt P24822) (P24822 whole entry): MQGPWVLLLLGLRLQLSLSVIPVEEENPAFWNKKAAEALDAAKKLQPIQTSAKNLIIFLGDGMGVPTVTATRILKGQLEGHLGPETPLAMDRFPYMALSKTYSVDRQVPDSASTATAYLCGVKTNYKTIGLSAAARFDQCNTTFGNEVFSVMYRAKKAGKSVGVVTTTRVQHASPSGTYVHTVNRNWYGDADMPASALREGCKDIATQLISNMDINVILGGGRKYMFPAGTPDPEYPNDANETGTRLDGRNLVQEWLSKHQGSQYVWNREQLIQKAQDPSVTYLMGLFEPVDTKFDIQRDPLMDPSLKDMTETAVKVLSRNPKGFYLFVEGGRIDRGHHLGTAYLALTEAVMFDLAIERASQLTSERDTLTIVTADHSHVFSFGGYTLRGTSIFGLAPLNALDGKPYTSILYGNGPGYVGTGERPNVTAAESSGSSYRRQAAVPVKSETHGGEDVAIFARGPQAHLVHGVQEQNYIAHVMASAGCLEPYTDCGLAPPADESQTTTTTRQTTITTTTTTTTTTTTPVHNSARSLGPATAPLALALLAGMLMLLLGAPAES

[36] = Luminescence Cell-Based Dose Response HTS to Identify Inhibitors of 5'UTR Stem-Loop Driven Prion Protein mRNA Translation in H4 Neuroglioblastoma Cells. [Related pubchem assays: 1827 (Project Summary), 1813 (Primary HTS)]; assay type: functional
[37] = biological target: T3, Intestinal-type alkaline phosphatase; assay: activation of human intestinal alkaline phosphatase – biochemical, luminescent, uHTS hits, set 2, dose response (AID 488817); assay type: functional;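 also: potency of activators that raise enzyme activity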

## O=C(N/N=C1\C/C(=N\NC(=O)c2ccncc2)c2ccccc21)c1ccncc1
Caspase-6
  AC50: 0.749 µM (active)
[1]
  IC50: 5.02 µM (active)
[2]
  IC50: 1.35 µM (active)

## CCCCC(=O)NC(c1ccccc1)c1ccc2cccnc2c1O (stereo not given)
[3]
  EC50: 0.502 µM (active)
[4]
  AC50: 2.13 µM (active)
HEK293 [5]
  IC50: 8.62 µM (active)
[6]
  EC50: 24.2 µM (active)
[7]
  AC50: 1.31 µM (active)
[8]
  AC50: 3.88 µM (active)
[9]
  AC50: 25.5 µM (active)
[10]
  AC50: 2.37 µM (active)
[11]
  AC50: 2.45 µM (active)
[12]
  EC50: 1.03 µM (active)
[13]
  AC50: 4.16 µM (active)
Cells [14]
  EC50: 7.75 µM (active)
[15]
  AC50: 2.15 µM (active)
[16]
  AC50: 5.47 µM (active)
[17]
  AC50: 2.35 µM (active)
[18]
  AC50: 10.9 µM (active)
HEK293 [19]
  IC50: 10.6 µM (active)

## CC(=O)N(Cc1ccc(F)cc1)C1=C(NCCc2ccccc2)C(=O)c2ccccc2C1=O
[20]
  CC50: 5.95 µM (active)
Cells [21]
  IC50: 3.23 µM (active)
[22]
  EC50: 7.95 µM (active)
[23]
  AC50: 8.23 µM (active)
[24]
  AC50: 5.61 µM (active)
[25]
  CC50: 0.67 µM (active)
[26]
  AC50: 2.45 µM (active)
[27]
  CC50: 5.56 µM (active)
[28]
  CC50: 7 µM (active)
Nonstructural protein 1
  IC50: 32.2 µM (active)
HT-1080
  EC50: 15.6 µM (active)
[29]
  AC50: 2.16 µM (active)

## O=C(/C=C/c1cccs1)NC(=S)NNC(=O)c1ccccc1O
[30]
  EC50: > 120 µM (not active)
[31]
  IC50: 2.57 µM (active)
[32]
  EC50: 8.8 µM (active)
[33]
  EC50: > 120 µM (not active)
[34]
  IC50: > 122 µM (inactive)
[35]
  IC50: 70.4 µM (active)
[36]
  EC50: 9.65 µM (active)
[37]
  EC50: 11 µM (active)
